In ChEMBL document CHEMBL1201862, “PubChem BioAssay data set” (2004) one finds IC50 data, which are given here for two compounds.

The structures appear in SMILES notation. The source made the active and inactive calls. No stated cut-off is given here; in the data, actives have a measured IC50 and inactives only a lower limit.

In this assay the target is Envelope glycoprotein gp160 (Human immunodeficiency virus 1, UniProt Q6QLK5). The assay is described as follows: cell-free HIV fusion peptide-binding blockers – biochemical, uHTS, fluorescence dequenching, […] (AID 1986).
Chain of Envelope glycoprotein gp160 (Q6QLK5 whole entry, the tested form may be a part): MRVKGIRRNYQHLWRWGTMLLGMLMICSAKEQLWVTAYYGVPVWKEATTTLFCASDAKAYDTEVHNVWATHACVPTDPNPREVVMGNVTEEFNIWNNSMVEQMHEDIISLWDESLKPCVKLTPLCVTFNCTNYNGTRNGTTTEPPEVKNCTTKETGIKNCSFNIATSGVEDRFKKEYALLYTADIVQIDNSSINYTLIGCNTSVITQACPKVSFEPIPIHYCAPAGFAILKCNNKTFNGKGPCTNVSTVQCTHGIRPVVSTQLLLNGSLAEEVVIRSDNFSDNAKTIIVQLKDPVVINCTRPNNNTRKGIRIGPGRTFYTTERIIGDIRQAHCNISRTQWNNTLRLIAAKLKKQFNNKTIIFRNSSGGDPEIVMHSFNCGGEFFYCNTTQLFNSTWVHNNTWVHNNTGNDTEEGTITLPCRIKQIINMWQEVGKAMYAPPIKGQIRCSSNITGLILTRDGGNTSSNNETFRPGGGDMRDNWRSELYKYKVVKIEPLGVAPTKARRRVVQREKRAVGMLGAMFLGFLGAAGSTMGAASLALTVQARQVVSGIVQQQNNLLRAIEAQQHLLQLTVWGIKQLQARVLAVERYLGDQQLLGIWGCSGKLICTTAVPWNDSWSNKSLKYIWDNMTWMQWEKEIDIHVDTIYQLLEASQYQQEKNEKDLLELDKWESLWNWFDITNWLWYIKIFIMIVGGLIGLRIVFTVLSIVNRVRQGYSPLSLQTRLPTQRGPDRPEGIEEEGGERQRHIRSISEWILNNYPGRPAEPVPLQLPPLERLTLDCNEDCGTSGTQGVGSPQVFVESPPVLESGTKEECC

Usually IC50 stands for the concentration needed to halve the response being measured. In the case of `COc1cc(/C=N/Nc2ccc(Cl)c(C(=O)O)c2)ccc1OC(=O)c1ccc(F)cc1`, the 50% inhibitory concentration (IC50) is 26.8 µM (active).
The figure for `O=C(O)c1[nH]c2ccccc2c1C(c1cc(Br)ccc1O)c1c(C(=O)O)[nH]c2ccccc12` is 4.11 µM (active).
